Data reported in paper PMC8632988, “Inhibition of SYK and cSrc kinases can protect bone and cartilage in preclinical models of osteoarthritis and rheumatoid arthritis” (Scientific Reports, 2021).
Several values for one entry are separate records, joined by “and”; a condition that tells them apart may be missing. Equal values may be shown once. Read-outs that look alike come from different tables or passages of the source.

Test: Pharmacokinetics after single oral administration to rats
Type: in vivo, rat
Settings: male Wistar rats; for AUCINF / AUClast / Cmax / Terminal t1/2 / concentration at 0.25 h / concentration at 0.5 h / concentration at 1 h / concentration at 2 h / concentration at 4 h / concentration at 8 h / concentration at 24 h / concentration at 48 h: plasma; for concentration at 0.25 h / concentration at 0.5 h / concentration at 1 h / concentration at 2 h / concentration at 4 h / concentration at 8 h / concentration at 24 h / concentration at 48 h: male, Wistar, rat, oral
Description: Experiments were performed at ChemPartner, Shanghai, China and approved by Institutional Ethics Committee (IEC) of ChemPartner. Male Wistar 10–12 weeks old rats with body weights of 185–220 g and male New Zealand rabbits with body weights of 2.0–2.3 kg were purchased from Shanghai SLAC Laboratory Animal Co., Ltd. MT-SYK-03 was administered to the three groups of rats (six rats per group) via oral gavage at 10 mL/kg concentration, and in rabbits 5 mL/kg concentration. Blood samples were kept on ice and centrifuged (2000 g, 4 ℃, 5 min) within 15 min post sampling.

[1] = Table S6, 100 mg/kg PO, individual Rat#1-6
[2] = Table S7, 100 mg/kg PO, individual Rat#7-12
[3] = Table S8, 200 mg/kg PO, individual Rat#13-18

With COc1cc(Nc2ncnc(Nc3cc4c(cn3)NC(=O)C(C)(C)O4)n2)cc(OC)c1OC [MT-SYK-03] the Plasma concentration (Table S6, 100 mg/kg PO, 0.25 h, individual Rat#1-6) was 257 ng/mL and 127 ng/mL and 313 ng/mL and 251 ng/mL and 240 ng/mL and 283 ng/mL, the Plasma concentration (Table S6, 100 mg/kg PO, 0.5 h, individual Rat#1-6) was 331 ng/mL and 166 ng/mL and 419 ng/mL and 280 ng/mL and 345 ng/mL and 375 ng/mL and the Plasma concentration (Table S6, 100 mg/kg PO, 1 h, individual Rat#1-6) was 470 ng/mL and 220 ng/mL and 487 ng/mL and 367 ng/mL and 392 ng/mL and 483 ng/mL. The Plasma concentration (Table S6, 100 mg/kg PO, 2 h, individual Rat#1-6) was 529 ng/mL and 209 ng/mL and 501 ng/mL and 372 ng/mL and 256 ng/mL and 359 ng/mL, the Plasma concentration (Table S6, 100 mg/kg PO, 4 h, individual Rat#1-6) was 196 ng/mL and 78.0 ng/mL and 171 ng/mL and 170 ng/mL and 226 ng/mL and 206 ng/mL and the Plasma concentration (Table S6, 100 mg/kg PO, 8 h, individual Rat#1-6) was 47.2 ng/mL and 31.2 ng/mL and 92.6 ng/mL and 41.6 ng/mL and 88.8 ng/mL and 43.5 ng/mL. The Plasma concentration (Table S6, 100 mg/kg PO, 24 h, individual Rat#1-6) was 0.818 ng/mL and BQL (2×) and 17.7 ng/mL and 1.57 ng/mL and 16.5 ng/mL, the Plasma concentration (Table S6, 100 mg/kg PO, 48 h, individual Rat#1-6) was “BQL (4×) and 1.55 ng/mL” and the AUCINF [1] was 2434 ng·h/mL and 971 ng·h/mL and 3948 ng·h/mL and 2253 ng·h/mL and 2452 ng·h/mL and 2451 ng·h/mL. The AUClast [1] was 2423 ng·h/mL and 869 ng·h/mL and 3933 ng·h/mL and 2069 ng·h/mL and 2446 ng·h/mL and 2297 ng·h/mL, the Cmax [1] was 529 ng/mL and 220 ng/mL and 501 ng/mL and 372 ng/mL and 392 ng/mL and 483 ng/mL and the “Terminal t1/2” value [1] was 7.83 h and 2.28 h and 6.60 h and 7.22 h and 2.78 h and 6.45 h. The Plasma concentration (Table S7, 100 mg/kg PO, 8 h, individual Rat#7-12) was 87.7 ng/mL and 152 ng/mL and 64.3 ng/mL and 178 ng/mL and 89.2 ng/mL and 82.6 ng/mL, the Plasma concentration (Table S7, 100 mg/kg PO, 24 h, individual Rat#7-12) was 32.8 ng/mL and 4.94 ng/mL and 6.04 ng/mL and 1.11 ng/mL and 1.56 ng/mL and the Plasma concentration (Table S7, 100 mg/kg PO, 48 h, individual Rat#7-12) was “BQL”. The AUCINF [2] was 4850 ng·h/mL and 3276 ng·h/mL and 4883 ng·h/mL and 4456 ng·h/mL and 3930 ng·h/mL, the AUClast [2] was 4843 ng·h/mL and 3238 ng·h/mL and 4878 ng·h/mL and 4452 ng·h/mL and 3910 ng·h/mL and the Cmax [2] was 1030 ng/mL and 770 ng/mL and 859 ng/mL and 876 ng/mL and 824 ng/mL. The “Terminal t1/2” value [2] was 5.58 h and 4.86 h and 3.71 h and 2.36 h and 2.34 h and 5.52 h, the Plasma concentration (Table S8, 200 mg/kg PO, 48 h, individual Rat#13-18) was “BQL” and the AUCINF [3] was 6063 ng·h/mL and 6845 ng·h/mL and 7115 ng·h/mL and 6299 ng·h/mL and 10096 ng·h/mL. The AUClast [3] was 6055 ng·h/mL and 6836 ng·h/mL and 7107 ng·h/mL and 6076 ng·h/mL and 10087 ng·h/mL, the Cmax [3] was 1430 ng/mL and 1360 ng/mL and 1370 ng/mL and 998 ng/mL and 1320 ng/mL and the “Terminal t1/2” value [3] was 6.31 h and 5.70 h and 2.52 h and 2.40 h and 8.67 h and 4.91 h. It also gave a concentration at 0.25 h (100 mg/kg, Table S6, 100 mg/kg PO, 0.25 h, mean of Rat#1-6, read-out: Plasma concentration, Mean) of 245 ng/mL, a concentration at 0.5 h (100 mg/kg, Table S6, 100 mg/kg PO, 0.5 h, mean of Rat#1-6, read-out: Plasma concentration, Mean) of 319 ng/mL and a concentration at 1 h (100 mg/kg, Table S6, 100 mg/kg PO, 1 h, mean of Rat#1-6, read-out: Plasma concentration, Mean) of 403 ng/mL. For the same compound, the concentration at 2 h (100 mg/kg, Table S6, 100 mg/kg PO, 2 h, mean of Rat#1-6, read-out: Plasma concentration, Mean) was 371 ng/mL, the concentration at 4 h (100 mg/kg, Table S6, 100 mg/kg PO, 4 h, mean of Rat#1-6) was 175 ng/mL and the concentration at 8 h (100 mg/kg, Table S6, 100 mg/kg PO, 8 h, mean of Rat#1-6) was 57.5 ng/mL. For the same compound, the concentration at 24 h (100 mg/kg, Table S6, 100 mg/kg PO, 24 h, mean of Rat#1-6) was 9.15 ng/mL, the concentration at 48 h (100 mg/kg, Table S6, 100 mg/kg PO, 48 h, individual Rat#1-6, read-out: Plasma concentration) was 0.984 ng/mL and the concentration at 48 h (100 mg/kg, Table S6, 100 mg/kg PO, 48 h, mean of Rat#1-6, read-out: Plasma concentration, Mean) was 1.27 ng/mL. It also gave a concentration at 0.25 h (100 mg/kg, Table S7, 100 mg/kg PO, 0.25 h, individual Rat#7-12, read-out: Plasma concentration) of 400 ng/mL, a concentration at 0.25 h (100 mg/kg, Table S7, 100 mg/kg PO, 0.25 h, mean of Rat#7-12, read-out: Plasma concentration, Mean) of 415 ng/mL and a concentration at 0.5 h (100 mg/kg, Table S7, 100 mg/kg PO, 0.5 h, individual Rat#7-12, read-out: Plasma concentration) of 716 ng/mL. It also gave a concentration at 0.5 h (100 mg/kg, Table S7, 100 mg/kg PO, 0.5 h, mean of Rat#7-12, read-out: Plasma concentration, Mean) of 679 ng/mL, a concentration at 1 h (100 mg/kg, Table S7, 100 mg/kg PO, 1 h, individual Rat#7-12, read-out: Plasma concentration) of 830 ng/mL and a concentration at 1 h (100 mg/kg, Table S7, 100 mg/kg PO, 1 h, mean of Rat#7-12, read-out: Plasma concentration, Mean) of 870 ng/mL. For the same compound, the concentration at 2 h (100 mg/kg, Table S7, 100 mg/kg PO, 2 h, individual Rat#7-12, read-out: Plasma concentration) was 519 ng/mL, the concentration at 2 h (100 mg/kg, Table S7, 100 mg/kg PO, 2 h, mean of Rat#7-12, read-out: Plasma concentration, Mean) was 602 ng/mL and the concentration at 4 h (100 mg/kg, Table S7, 100 mg/kg PO, 4 h, mean of Rat#7-12) was 384 ng/mL. It also gave a concentration at 8 h (100 mg/kg, Table S7, 100 mg/kg PO, 8 h, mean of Rat#7-12) of 109 ng/mL, a concentration at 24 h (100 mg/kg, Table S7, 100 mg/kg PO, 24 h, mean of Rat#7-12) of 8 ng/mL and a concentration at 48 h (100 mg/kg, Table S7, 100 mg/kg PO, 48 h, mean of Rat#7-12, read-out: Plasma concentration, Mean) of 1.79 ng/mL. The concentration at 0.25 h (200 mg/kg, Table S8, 200 mg/kg PO, 0.25 h, individual Rat#13-18, read-out: Plasma concentration) was 489 ng/mL, the concentration at 0.25 h (200 mg/kg, Table S8, 200 mg/kg PO, 0.25 h, mean of Rat#13-18, read-out: Plasma concentration, Mean) was 425 ng/mL and the concentration at 0.5 h (200 mg/kg, Table S8, 200 mg/kg PO, 0.5 h, individual Rat#13-18, read-out: Plasma concentration) was 858 ng/mL. For the same compound, the concentration at 0.5 h (200 mg/kg, Table S8, 200 mg/kg PO, 0.5 h, mean of Rat#13-18, read-out: Plasma concentration, Mean) was 892 ng/mL, the concentration at 1 h (200 mg/kg, Table S8, 200 mg/kg PO, 1 h, individual Rat#13-18, read-out: Plasma concentration) was 984 ng/mL and the concentration at 1 h (200 mg/kg, Table S8, 200 mg/kg PO, 1 h, mean of Rat#13-18, read-out: Plasma concentration, Mean) was 1220 ng/mL. It also gave a concentration at 2 h (200 mg/kg, Table S8, 200 mg/kg PO, 2 h, individual Rat#13-18, read-out: Plasma concentration) of 1180 ng/mL.
